We go through two compounds from ChEMBL document CHEMBL6134904, “Discovery of Potent PDEδ/NAMPT Dual Inhibitors: Preclinical Evaluation in KRAS Mutant Pancreatic Cancer Cells” (J Med Chem, 2025).

Test [1] concerns the target Nicotinamide phosphoribosyltransferase (Homo sapiens, UniProt P43490).
Description: Inhibition of NAMPT (unknown origin) using NAM as substrate preincubated for 5 mins followed by substrate addition and measured after 15 mins by fluorescence based microtiter plate reader analysis
The subject of test [2] is MIA PaCa-2. In words: cells. To be noted: Homo sapiens, MIA PaCa-2, 72 h.
Description: Antiproliferative activity against human MIA PaCa-2 cells assessed as inhibition of cell growth incubated for 72 hrs by CCK8 assay
The test system of test [3] is HCT-116. The experiment in a line: cells. To be noted: Homo sapiens, HCT-116, 72 h.
Description: Antiproliferative activity against human HCT-116 cells assessed as inhibition of cell growth incubated for 72 hrs by CCK8 assay
Test [4] concerns A549. In words: cells. To be noted: Homo sapiens, A549, 72 h.
Description: Antiproliferative activity against human A549 cells assessed as inhibition of cell growth incubated for 72 hrs by CCK8 assay
The test system of test [5] is MIA PaCa-2. The experiment in a line: Synergistic antiproliferative activity against human MIA PaCa-2 cells harboring KRAS G12C mutant assessed as inhibition of cell growth by measuring combination index at 1:2 molar ratio of test compound:1-(4-(piperidin-1-ylsulfonyl)phenyl)-3-(pyridin-3-ylmethyl)thiourea by chou-talalay method. It counts as functional.
The test system of test [6] is MIA PaCa-2. In words: Antiproliferative activity against human MIA PaCa-2 cells assessed as inhibition of cell growth incubated for 72 hrs in presence of 1-(4-(piperidin-1-ylsulfonyl)phenyl)-3-(pyridin-3-ylmethyl)thiourea by CCK8 assay. It is filed as functional, cell-based. To be noted: MIA PaCa-2, 72 h.
In test [7] the test system is HCT-116. The experiment in a line: Antiproliferative activity against human HCT-116 cells assessed as inhibition of cell growth incubated for 72 hrs in presence of 1-(4-(piperidin-1-ylsulfonyl)phenyl)-3-(pyridin-3-ylmethyl)thiourea by CCK8 assay. To be noted: HCT-116, 72 h. It counts as functional, cell-based.
Test [8] deals with A549. In words: Antiproliferative activity against human A549 cells assessed as inhibition of cell growth incubated for 72 hrs in presence of 1-(4-(piperidin-1-ylsulfonyl)phenyl)-3-(pyridin-3-ylmethyl)thiourea by CCK8 assay. It counts as functional, cell-based. To be noted: A549, 72 h. (Formazan colour is commonly taken as a measure of viable cells.)
Test [9] relates to MIA PaCa-2. In words: Antitumor activity against human MIA PaCa-2 cells xenografted in female BALB/C nude mouse assessed as tumor growth inhibition at 20 mg/kg, ip administered once daily for 21 days relative to control. To be noted: MIA PaCa-2, 504 h, read-out: TGI. (In general: A xenograft is tissue or cells of one species grown in another, often human tumour cells in immunodeficient mice.)

Test [10] relates to MIA PaCa-2. The experiment in a line: Antitumor activity against human MIA PaCa-2 cells xenografted in female BALB/C nude mouse assessed as tumor growth inhibition at 20 mg/kg, ip co-administered with 1-(4-(piperidin-1-ylsulfonyl)phenyl)-3-(pyridin-3-ylmethyl)thiourea once daily for 21 days relative to control. It is filed as functional. To be noted: MIA PaCa-2, 504 h, time 21 day, read-out: TGI.

Test [11] concerns the target Retinal rod rhodopsin-sensitive cGMP 3',5'-cyclic phosphodiesterase subunit delta (Homo sapiens, UniProt O43924).

pIC50, pKd: −log10 of the molar value. Some results are limits rather than exact numbers.

Chain of Retinal rod rhodopsin-sensitive cGMP 3',5'-cyclic phosphodiesterase subunit delta (O43924 whole entry): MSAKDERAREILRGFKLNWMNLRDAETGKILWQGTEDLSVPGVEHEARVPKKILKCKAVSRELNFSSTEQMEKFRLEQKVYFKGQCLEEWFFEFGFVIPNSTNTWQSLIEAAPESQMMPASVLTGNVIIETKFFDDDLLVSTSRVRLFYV
Chain of Nicotinamide phosphoribosyltransferase (P43490 whole entry): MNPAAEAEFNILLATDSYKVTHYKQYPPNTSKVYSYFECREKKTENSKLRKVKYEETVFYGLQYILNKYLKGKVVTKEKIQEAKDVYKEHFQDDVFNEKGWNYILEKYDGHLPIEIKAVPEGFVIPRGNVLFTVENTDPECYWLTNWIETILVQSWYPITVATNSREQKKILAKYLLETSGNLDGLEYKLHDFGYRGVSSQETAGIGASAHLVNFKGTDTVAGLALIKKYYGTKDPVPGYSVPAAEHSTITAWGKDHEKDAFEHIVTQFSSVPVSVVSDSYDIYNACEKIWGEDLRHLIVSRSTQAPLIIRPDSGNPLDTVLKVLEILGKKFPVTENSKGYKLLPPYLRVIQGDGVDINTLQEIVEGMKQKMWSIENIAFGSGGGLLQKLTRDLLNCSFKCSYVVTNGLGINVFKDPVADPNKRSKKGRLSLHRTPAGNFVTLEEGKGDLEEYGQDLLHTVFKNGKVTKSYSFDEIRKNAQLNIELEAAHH

Usually pIC50 stands for the negative decadic logarithm of the IC50, by convention in mol/L. As for `O=C(/C=C/c1cccnc1)Nc1ccc(S(=O)(=O)N(Cc2ccc(Cl)cc2)C2CCCC2)cc1`, the pIC50 in test [1] is 6.58; with MIA PaCa-2 [2] it was 7.44; with HCT-116 [3] it was 6.15; in the test with A549 [4], 7.85.

The pKd is −log10 of the Kd, conventionally taken in molar units. The low end stands for a high Kd, the high end for a low Kd. Consider `Cc1ccc(-n2nc3c(=O)n(CCC(=O)N4CCC(N5C(=O)c6ccccc6NC5c5ccccc5F)CC4)nc(C)c3c2C)cc1` (centres undefined), for which the CI with MIA PaCa-2 [5] was under 1. The negative-log IC50 (pIC50) in the test on MIA PaCa-2 [6] is 6.89; with HCT-116 [7], 6.63; in the test on A549 [8], 7.41; with MIA PaCa-2 [2], under 4.70; in the test with HCT-116 [3] it was 5.16; in the test with A549 [4], under 4.70. In addition, the inhibition in vivo at 20 mg/kg with MIA PaCa-2 [9] was determined as 26.8%; in the test with MIA PaCa-2 [10], 44.1%. The same compound gave a negative-log Kd (pKd) in [11] of 8.29.
